{"source": "patent US20250171423A1", "about": "“PHARMACEUTICAL COMPOUNDS FOR THE TREATMENT OF COMPLEMENT MEDIATED DISORDERS” (Achillion Pharmaceuticals, Inc., priority 2020, published 2025)", "data": [{"target": "T1, Human complement C1s enzyme (Homo sapiens, UniProt P09871)", "T1 construct": "purified from human serum, Complement Technology, Inc; purchased Complement Technology, Inc; host or cells: human serum", "T1 sequence (P09871 438-688 limits assumed)": "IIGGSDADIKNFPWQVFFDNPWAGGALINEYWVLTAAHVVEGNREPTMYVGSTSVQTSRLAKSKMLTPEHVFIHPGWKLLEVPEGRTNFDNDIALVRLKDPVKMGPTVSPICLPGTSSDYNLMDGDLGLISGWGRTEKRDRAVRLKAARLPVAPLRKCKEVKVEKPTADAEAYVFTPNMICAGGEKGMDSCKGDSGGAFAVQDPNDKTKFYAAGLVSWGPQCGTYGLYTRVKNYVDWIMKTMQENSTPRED", "T1 sequence (P09871 16-437 partner limits assumed)": "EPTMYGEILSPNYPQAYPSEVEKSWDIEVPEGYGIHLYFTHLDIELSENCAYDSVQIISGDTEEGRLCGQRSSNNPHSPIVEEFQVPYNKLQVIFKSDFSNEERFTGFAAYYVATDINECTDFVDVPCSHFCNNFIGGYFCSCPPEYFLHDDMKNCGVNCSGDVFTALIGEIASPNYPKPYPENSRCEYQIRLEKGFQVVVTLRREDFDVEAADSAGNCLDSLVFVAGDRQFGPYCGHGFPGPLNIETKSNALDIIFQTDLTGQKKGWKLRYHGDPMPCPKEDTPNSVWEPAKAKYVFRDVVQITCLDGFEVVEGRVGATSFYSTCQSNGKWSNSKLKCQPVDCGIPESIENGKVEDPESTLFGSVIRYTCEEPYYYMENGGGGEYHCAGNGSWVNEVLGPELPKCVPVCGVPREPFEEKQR", "assay": "Human C1s Enzyme Assay", "format": "biochemical", "details": "human C1s 1.16 nM, 5 min preincubation, substrate Z-L-Lys-SBzl 100 μM, A405; read-out: C1s Protease Activity", "outline": "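IC50 values were fitted by nonlinear regression to rates measured as A405 every 30 s for 30 min. The thioester substrate Z-L-Lys-SBzl and Ellman's reagent were each at 100 μM. Serum-derived C1s at 1.16 nM final had 5 min of room-temperature preincubation with compound (pH 7.5 Tris buffer, 1 M NaCl).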", "units": {"IC50": "nM"}, "values": [{"compound": "C[C@@H](C(=O)NCc1cc(C(=N)N)cs1)N(C)C(=O)CNC(=O)c1ccc(Oc2ccccc2)cc1", "note": "[Compound 126, (S)-N-(2-((1-(((4-carbamimidoylthiophen-2-yl)methyl)amino)-1-oxopropan-2-yl)(methyl)amino)-2-oxoethyl)-4-phenoxybenzamide]", "IC50": "< 100"}, {"compound": "C[C@@]12C[C@@H]1N(C(=O)CNC(=O)c1ccc(Oc3ccccc3)cc1)[C@H](C(=O)N(O)Cc1cc(C(=N)N)cs1)C2", "note": "[Compound 127, (1S,3S,5S)-N-((4-carbamimidoylthiophen-2-yl)methyl)-N-hydroxy-5-methyl-2-((4-phenoxybenzoyl)glycyl)-2-azabicyclo[3.1.0]hexane-3-carboxamide]", "IC50": "> 1000"}, {"compound": "N=C(N)c1csc(CNC(=O)[C@@H]2[C@H](O)[C@@H](F)CN2C(=O)CNC(=O)CCCOc2ccccc2)c1", "note": "[Compound 128, (2S,3S,4S)-N-((4-carbamimidoylthiophen-2-yl)methyl)-4-fluoro-3-hydroxy-1-((4-phenoxybutanoyl)glycyl)pyrrolidine-2-carboxamide]", "IC50": "< 100"}, {"compound": "CN(C)C[C@@]1(F)C[C@@H](C(=O)NCc2cc(C(=N)N)cs2)N(C(=O)CNC(=O)CCCOc2ccccc2)C1", "note": "[Compound 129, (2S,4S)-N-[(4-carbamimidoylthiophen-2-yl)methyl]-4-[(dimethylamino)methyl]-4-fluoro-1-[2-(4-phenoxybutanamido)acetyl]pyrrolidine-2-carboxamide]", "IC50": "< 100"}, {"compound": "C[C@@H](NC(=O)[C@@H]1C[C@]2(C)C[C@@H]2N1C(=O)CNC(=O)CCCCc1ccccc1)c1cc(C(=N)N)cs1", "note": "[Compound 130, (1S,3S,5S)-N-((R)-1-(4-carbamimidoylthiophen-2-yl)ethyl)-5-methyl-2-((5-phenyl-pentanoyl)glycyl)-2-azabicyclo[3.1.0]hexane-3-carboxamide]", "IC50": "< 100"}, {"compound": "Cc1ccc(O[C@@H]2C[C@@H](C(=O)N[C@H](C)c3cc(C(=N)N)cs3)N(C(=O)CNC(=O)CCCOc3ccccc3)C2)cc1", "note": "[Compound 131, (2S,4R)-N-((R)-1-(4-carbamimidoylthiophen-2-yl)ethyl)-1-((4-phenoxybutanoyl)glycyl)-4-(p-tolyloxy)pyrrolidine-2-carboxamide]", "IC50": "< 100"}, {"compound": "C[C@@]12C[C@@H]1N(C(=O)CNC(=O)c1cc3cc(Oc4ccccc4)ccc3o1)[C@H](C(=O)NCc1cc(C(=N)N)cs1)C2", "note": "[Compound 132, (1S,3S,5S)-N-((4-carbamimidoylthiophen-2-yl)methyl)-5-methyl-2-((5-phenoxybenzofuran-2-carbonyl)glycyl)-2-azabicyclo[3.1.0]hexane-3-carboxamide]", "IC50": "< 100"}, {"compound": "C[C@@H](NC(=O)[C@@H]1CC2(CN1C(=O)CNC(=O)CCCOc1ccccc1)OCCO2)c1ccc(C(=N)N)s1", "note": "[Compound 133, (S)-N-((R)-1-(5-carbamimidoylthiophen-2-yl)ethyl)-7-((4-phenoxybutanoyl)glycyl)-1,4-dioxa-7-azaspiro[4.4]nonane-8-carboxamide]", "IC50": "< 100"}, {"compound": "C[C@@]12C[C@@H]1N(CCNC(=O)CCCOc1ccccc1)[C@H](C(=O)NCc1cc(C(=N)N)cs1)C2", "note": "[Compound 134, (1S,3S,5S)-N-((4-carbamimidoylthiophen-2-yl)methyl)-5-methyl-2-(2-(4-phenoxybutanamido)ethyl)-2-azabicyclo[3.1.0]hexane-3-carboxamide]", "IC50": "> 1000"}, {"compound": "N=C(N)c1csc(CNC(=O)[C@@H]2C[C@]3(CN4CCOCC4)C[C@@H]3N2C(=O)CNC(=O)CCCOc2ccccc2)c1", "note": "[Compound 135, (1S,3S,5S)-N-((4-carbamimidoylthiophen-2-yl)methyl)-5-(morpholinomethyl)-2-((4-phenoxybutanoyl)glycyl)-2-azabicyclo[3.1.0]hexane-3-carboxamide]", "IC50": "< 100"}, {"compound": "COCCOCCCC(=O)NCC(=O)N1[C@H]2C[C@@]2(C)C[C@H]1C(=O)NCc1cc(C(=N)N)cs1", "note": "[Compound 136, (1S,3S,5S)-N-((4-carbamimidoylthiophen-2-yl)methyl)-2-((4-(2-methoxyethoxy)butanoyl)glycyl)-5-methyl-2-azabicyclo[3.1.0]hexane-3-carboxamide]", "IC50": "100 to 1000"}, {"compound": "C[C@@]12C[C@@H]1N(C(=O)CNC(=O)c1cccc(Oc3ccccc3)c1)[C@H](C(=O)NCc1cc(C(=N)N)cs1)C2", "note": "[Compound 137, (1S,3S,5S)-N-((4-carbamimidoylthiophen-2-yl)methyl)-5-methyl-2-((3-phenoxbenzoyl)glycyl)-2-azabicyclo[3.1.0]hexane-3-carboxamide]", "IC50": "< 100"}, {"compound": "CC(C)O[C@@H]1C[C@@H](C(=O)NCc2cc(C(=N)N)cs2)N(C(=O)CNC(=O)c2ccc(Oc3ccccc3)cc2)C1", "note": "[Compound 138, (2S,4R)-N-((4-carbamimidoylthiophen-2-yl)methyl)-4-isopropoxy-1-((4-phenoxybenzoyl)glycyl)pyrrolidine-2-carboxamide]", "IC50": "< 100"}, {"compound": "C[C@@]12C[C@@H]1N(C(=O)CNC(=O)c1ccc(Oc3ccccc3)cc1)[C@H](C(=O)NCc1cc(/C(N)=N/NS(=O)(=O)c3ccccc3)cs1)C2", "note": "[Compound 139, (1S,3S,5S)-N-((4-(imino(2-(phenylsulfonyl)hydrazineyl)methyl)thiophen-2-yl)methyl)-5-methyl-2-((4-phenoxybenzoyl)glycyl)-2-azabicyclo[3.1.0]hexane-3-carboxamide]", "IC50": "> 1000"}, {"compound": "CC1(c2ccc(OCCCC(=O)NCC(=O)N3[C@H]4C[C@@]4(C)C[C@H]3C(=O)NCc3cc(C(=N)N)cs3)cc2)COC1", "note": "[Compound 140, (1S,3S,5S)-N-((4-carbamimidoylthiophen-2-yl)methyl)-5-methyl-2-((4-(4-(3-methyloxetan-3-yl)phenoxy)butanoyl)glycyl)-2-azabicyclo[3.1.0]hexane-3-carboxamide]", "IC50": "< 100"}, {"compound": "CC(=O)NCCOC[C@@]12C[C@@H]1N(C(=O)CNC(=O)c1ccc(Oc3ccccc3)cc1)[C@H](C(=O)N[C@H](C)c1cc(C(=N)N)cs1)C2", "note": "[Compound 141, (1S,3S,5R)-5-((2-acetamidoethoxy)methyl)-N-((R)-1-(4-carbamimidoylthiophen-2-yl)ethyl)-2-((4-phenoxybenzoyl)glycyl)-2-azabicyclo[3.1.0]hexane-3-carboxamide]", "IC50": "< 100"}, {"compound": "CC(=O)NCCOC[C@@]12C[C@@H]1N(C(=O)CNC(=O)CCCOc1ccccc1)[C@H](C(=O)N[C@H](C)c1cc(C(=N)N)cs1)C2", "note": "[Compound 142, (1S,3S,5R)-5-((2-acetamidoethoxy)methyl)-N-((R)-1-(4-carbamimidoylthiophen-2-yl)ethyl)-2-((4-phenoxybutanoyl)glycyl)-2-azabicyclo[3.1.0]hexane-3-carboxamide]", "IC50": "100 to 1000"}, {"compound": "C[C@@]12C[C@@H]1N(C(=O)CNC(=O)c1ccc(Oc3ccccc3)nc1)[C@H](C(=O)NCc1cc(C(=N)N)cs1)C2", "note": "[Compound 143, (1S,3S,5S)-N-((4-carbamimidoylthiophen-2-yl)methyl)-5-methyl-2-((6-phenoxynicotinoyl)glycyl)-2-azabicyclo[3.1.0]hexane-3-carboxamide]", "IC50": "< 100"}, {"compound": "C[C@@]12C[C@@H]1N(C(=O)CN1Cc3ccc(Oc4ccccc4)cc3C1=O)[C@H](C(=O)NCc1cc(C(=N)N)cs1)C2", "note": "[Compound 144, (1S,3S,5S)-N-[(4-carbamimidoylthiophen-2-yl)methyl]-5-methyl-2-[2-(1-oxo-6-phenoxy-3H-isoindol-2-yl)acetyl]-2-azabicyclo[3.1.0]hexane-3-carboxamide]", "IC50": "< 100"}, {"compound": "C[C@@]12C[C@@H]1N(C(=O)CNC(=O)c1ccccc1Oc1ccccc1)[C@H](C(=O)NCc1cc(C(=N)N)cs1)C2", "note": "[Compound 145, (1S,3S,5S)-N-((4-carbamimidoylthiophen-2-yl)methyl)-5-methyl-2-((2-phenoxybenzoyl)glycyl)-2-azabicyclo[3.1.0]hexane-3-carboxamide]", "IC50": "< 100"}, {"compound": "N=C(N)c1csc(CNC(=O)[C@@H]2C[C@@H](C(F)F)CN2C(=O)CNC(=O)CCCOc2ccccc2)c1", "note": "[Compound 147, (2S,4R)-N-((4-carbamimidoylthiophen-2-yl)methyl)-4-(difluoromethyl)-1-((4-phenoxybutanoyl)glycyl)pyrrolidine-2-carboxamide]", "IC50": "100 to 1000"}, {"compound": "C[C@@H](NC(=O)[C@@H]1C[C@]2(COCC(=O)O)C[C@@H]2N1C(=O)CNC(=O)CCCOc1ccccc1)c1cc(C(=N)N)cs1", "note": "[Compound 148, 2-(((1S,3S,5R)-3-(((R)-1-(4-carbamimidoylthiophen-2-yl)ethyl)carbamoyl)-2-((4-phenoxybutanoyl)glycyl)-2-azabicyclo[3.1.0]hexan-5-yl)methoxy)acetic acid]", "IC50": "< 100"}, {"compound": "COC[C@@]1(F)C[C@@H](C(=O)N[C@H](C)c2cc(C(=N)N)cs2)N(C(=O)CNC(=O)CCCOc2ccccc2)C1", "note": "[Compound 149, (2S,4R)-N-((R)-1-(4-carbamimidoylthiophen-2-yl)ethyl)-4-fluoro-4-(methoxymethyl)-1-((4-phenoxybutanoyl)glycyl)pyrrolidine-2-carboxamide]", "IC50": "< 100"}, {"compound": "Cc1ccccc1[C@H]1C[C@@H](C(=O)NCc2cc(C(=N)N)cs2)N(C(=O)CNC(=O)CCCOc2ccccc2)C1", "note": "[Compound 150]", "IC50": "< 100"}]}]}
